Test results taken from patent US4829086A, “Soft β-adrenergic blocking agents” (priority 1985, dated 1989).
Counter-ions that a name gives are not always drawn. Like-named read-outs stand apart in the source and are kept apart here.

Experiments:
[1] = tested on: heart rate response to isoproterenol (β-adrenergic); assay: Heart rate response to isoproterenol in rats (initial drug screening); type: in vivo, male Spraque-Dawley rats; details: 6 mg/kg i.p.; for resting heart rate prior to administration of isoproterenol: mean ± SEM
From the text: (§1) Initial Drug Screening Protocol. Thirty-two male Spraque-Dawley rats (Blue Spruce Farms) initially weighing 300-450 gm were divided into seven different groups, each for a different drug to be tested: 12(n=4), 14(n=4), 17(n=5), 13(n=4) and 18(n=3), corresponding to the designated compounds 12, 14, 17, 13 and 18 (number of animals), respectively. The other two groups were controls (n=8, isoproterenol alone pretreated with carrier) and those treated with a known β-blocker, dl-propranolol (n=3). Ech animal was anesthetized with sodium pentobarbital (45 mg/kg) and the carotid artery was cannulated with PE-50 tubing. The cannula was subcutaneously threaded around the neck and exteriorized dorsally between the shoulder blades. Th cannula was filled with a heparin solution (300 μg/mL) and sealed with a solid 22 gauge stylet. The animals were housed in individual stainless steel cages, and two days were allowed for recovery from the surgery. Food and water were provided ad libitum. On the day of the experiment, the blood pressure and heart rate of each rat were monitored with a pressure transducer (Narco-Bio model P-1000) and the data recorded on a four-channel physiograph (Narco-Bio systems Marck IV). One hour was allowed as an equilibration period before any drugs were administered. All beta blockers were administered intraperitoneally at a dose of 6 mg/kg. Compounds 12 and 14 and dl-proranolol were dissolved in normal saline while compounds 13, 17 and 18 were dissolved in an ethanol: water solution (3:1). Depending on the trial, controls were administered the appropriate carrier. One hour after administration of the blocker, isoproterenol (Isuprel®, Wintrop Laboratories) was administered subcutaneously at a dose of 25 μg/kg. Blood pressures and heart rate also were recorded 3, 5, 10, 15, 20, 30, 45 and 60 minutes after isoproterenol administration. Both control and experimental animals were unrestrained and free moving in their home cage throughout the experiment. […] However, significant differences in the mean heart rate response amoung the 7 groups were observed: *p<0.005;**p<0.025. Comparisons between groups were made by the Newman-Keuls procedure with significance set at the 95% confidence interval. […] All data are shown as mean±standard error of the mean.

[2] = Hydrolytic rate in 0.01 N aqueous sodium hydroxide, pH 12.0; type: physicochemical; details: pH 12.0, ionic strength 0.10 M (NaCl), 27.3 ± 0.2° C.; for Observed pseudo first order hydrolytic rate constant k: 0.01 N NaOH, ± SEM; for half-life: 0.01 n naoh, pH 12, 0.01 N NaOH, read-out: Half-life t1/2
Experimental: (§2) Analytical Methods. A high pressure liquid chromatography (HPLC) method was developed for the determination of the rate constants. The chromatographic analysis was performed in a system consisting of Waters Associates Model 600-A Solvent Delivery System, Model U-6K Injector and Model 440 Dual Channel Absorbance Detector operated at 254 and 280 nm. A 30 cm×3.9 mm (internal diameter) reverse phase μBondpack C18 column (Waters Associates), operated at ambient temperature, was used for all separations. When plasma samples were analyzed, the column was protected with a 2.3 cm×3.9 mm (internal diameter) Guard Column (Waters) packed with μBondpack C18/Corasil packing material. The mobile phase used for the separation of 17 and its degradation product, 5, consisted of water, 1-hexane sulfonic acid in acetic acid (B-6 reagent, Waters), 0.1M triethanolamine and methanol (100:1:100:799). […] For the separation of compounds 10-16 and 18 and their degradation product 5, a mobile phase consisting of water, 1-hexane sulfonic acid in acetic acid (B-6 reagent, Waters), 0.1M triethanolamine and methanol (390:1:10:599) was used.
(§3) Determination of the Hydrolytic Rate Constants in Aqueous Solutions. A 0.01M phosphate buffer and 0.01N sodium hydroxide solution were prepared from freshly distilled deionized water. This ionic strength was maintained at 0.1M with sodium chloride. The pH of the phosphate buffer was determined at 37.0° C. with a pH meter standardized at this temperature. For determination of the hydrolytic rate constants, a fresh concentrated solution of the ester in methanol was added to the hydrolytic medium previously equilibrated to the desired temperature and mixed thoroughly to result in an initial concentration of about 5×10^-4 mol. liter^-1. All reactions were run under pseudo first order conditions. Samples of 25 μL were injected into the column at various time intervals and the pseudo first order rate constants were determined from disappearance of the compound by linear regression of natural logarithm of the peak height versus time plots. The half-life and standard error of the rate constant were calculated for each run.

[3] = Enzymatic hydrolytic cleavage in human plasma; type: in vitro ADME; details: for Observed first order hydrolytic rate constant k: ± SEM; for half-life at 1000 µM: human, plasma
Experimental: as §2, §3
Determination of the Enzymatic Hydrolytic Cleavage Rates in Human Plasma. The freshly collected plasma used was obtained from the Civitan Regional Blood Center, Inc. (Gainesville, Fla.) and contained about 80% plasma diluted with anticoagulant citrate phosphate dextrose solution, U.S.P. The plasma was stored in a refrigerator and used within one week from the date it was collected.
A portion of 50 μL of a freshly prepared solution of the compound in methanol was added to 10 mL plasma, previously equilibrated at 37.0° C. in a water bath, and mixed thoroughly to result in an initial concentration of 1×10^-3 mol. liter^-1. One mL samples of plasma were withdrawn from the test medium, mixed immediately with 4.0 mL ice cold 95% v/v ethanol, centrifuged and the supernatant analyzed by HPLC. The first order hydrolytic rate constant was determined as before in the aqueous solutions and the results are listed in TABLE II below.

[4] = tested on: blood pressure response to isoproterenol; assay: Blood pressure response to isoproterenol in rats; type: in vivo, male Spraque-Dawley rats; details: 6 mg/kg i.p.; for mean change in blood pressure vs propranolol and compound 12-treated groups: isoproterenol 25 μg/kg s.c., FIG. 3
From the text: as §1
Symbols are the same as those described for FIG. 1. […] Data are shown as mean±standard error of the mean.

[5] = Hydrolysis in 0.01M phosphate buffer pH 7.4; type: physicochemical; details: pH 7.4, 37° C.
Experimental: Analytical Methods. A high pressure liquid chromatography (HPLC) method was developed for the determination of the rate constants. The chromatographic analysis was performed in a system consisting of Waters Associates Model 600-A Solvent Delivery System, Model U-6K Injector and Model 440 Dual Channel Absorbance Detector operated at 254 and 280 nm. A 30 cm×3.9 mm (internal diameter) reverse phase μBondpack C18 column (Waters Associates), operated at ambient temperature, was used for all separations. When plasma samples were analyzed, the column was protected with a 2.3 cm×3.9 mm (internal diameter) Guard Column (Waters) packed with μBondpack C18/Corasil packing material. The mobile phase used for the separation of 17 and its degradation product, 5, consisted of water, 1-hexane sulfonic acid in acetic acid (B-6 reagent, Waters), 0.1M triethanolamine and methanol (100:1:100:799). […]
Determination of the Hydrolytic Rate Constants in Aqueous Solutions. […] The pH of the phosphate buffer was determined at 37.0° C. with a pH meter standardized at this temperature. […] Samples of 25 μL were injected into the column at various time intervals and the pseudo first order rate constants were determined from disappearance of the compound by linear regression of natural logarithm of the peak height versus time plots. The half-life and standard error of the rate constant were calculated for each run.

β-adrenergic [6] = details: major metabolite found in the urine; Borg et al; cited from earlier work
β-adrenergic [7] = assay: β-adrenergic activity of the acid metabolite (statement)
[8] = 37.0 ± 0.1° C., read-out: Half-life t1/2

Structure (SMILES): CC(C)NCC(O)COc1cccc2ccccc12 (centres unmarked) [propranolol, reference compound]
- mean heart rate response to isoproterenol, comparison between groups ([1]; 1 hour before isoproterenol 25 μg/kg s.c., Newman-Keuls, first 20 minutes (17) or first 30 minutes (propranolol)): significantly different for the first 30 minutes
- mean heart rate response to isoproterenol vs groups treated with compound 12 and 18 ([1]; 10 through 45 minutes following isoproterenol): significantly different than the groups treated with compound 12 and 18

Structure (SMILES): CCCCOC(=O)Cc1ccc(OCC(O)CNC(C)(C)C)cc1 (centres unmarked) [Compound 18, n-Butyl 4-(2-hydroxy-3-tert-butylamino)propoxyphenylacetate oxalate hydrate]
- Observed pseudo first order hydrolytic rate constant k [2]: 7.19 ± 0.04 × 10^-2 min^-1
- half-life [2]: 9.64 min
- resting heart rate prior to administration of isoproterenol [1]: 307±7 beat/minute
- hydrolysis in human plasma ([3]; 37.0 ± 0.1° C., three hours where stated): did not affect the hydrolysis rates
- Observed first order hydrolytic rate constant k ([3]; 37.0 ± 0.1° C.): 0.351 ± 0.019 min⁻¹
- half-life at 1000 µM [3, 8]: 1.98 min

Structure (SMILES): CC(C)NCC(O)COc1ccc(CC(=O)OC(C)C)cc1 (centres unmarked) [Compound 12, Isopropyl 4-(2-hydroxy-3-isopropylamino)propoxyphenylacetate]
- Observed pseudo first order hydrolytic rate constant k [2]: 2.07 ± 0.03 × 10^-2 min^-1
- half-life [2]: 33.5 min
- resting heart rate prior to administration of isoproterenol [1]: 345±19 beat/minute
- hydrolyzed up to x times more slowly than many of the other esters [3]: up to 100 times
- Observed first order hydrolytic rate constant k ([3]; 37.0 ± 0.1° C.): 0.414 ± 0.001 × 10^-2 min^-1
- half-life at 1000 µM [3, 8]: 167 min

Structure (SMILES): CC(C)NCC(O)COc1ccc(CC(=O)OCc2ccccc2)cc1 (centres unmarked) [Compound 14, Benzyl 4-(2-hydroxy-3-isopropylamino)propoxyphenylacetate]
- Observed pseudo first order hydrolytic rate constant k [2]: 0.208 ± 0.004 min⁻¹
- half-life [2]: 3.33 min
- resting heart rate prior to administration of isoproterenol [1]: 405±22 beat/minute
- mean change in blood pressure vs propranolol and compound 12-treated groups [4]: significantly lower (p<0.15)
- half-life [5]: 13 days
- Observed first order hydrolytic rate constant k ([3]; 37.0 ± 0.1° C.): 0.236 ± 0.007 min⁻¹
- half-life at 1000 µM [3, 8]: 2.93 min

Structure (SMILES): CC(C)NCC(O)COc1cccc2ccccc12 (racemic) [d,l-propranolol, dl-propranolol, reference compound]
- resting heart rate prior to administration of isoproterenol [1]: 320±23 beat/minute

Structure (SMILES): CCCOC(=O)Cc1ccc(OCC(O)CNC(C)C)cc1 (centres unmarked) [Compound 11, n-Propyl 4-(2-hydroxy-3-isopropylamino)propoxyphenylacetate]
- Observed pseudo first order hydrolytic rate constant k [2]: 0.103 ± 0.001 min⁻¹
- half-life [2]: 6.73 min
- half-life [5]: 8.7 days
- Observed first order hydrolytic rate constant k ([3]; 37.0 ± 0.1° C.): 0.143 ± 0.005 min⁻¹
- half-life at 1000 µM [3, 8]: 4.86 min

Structure (SMILES): CCCCOC(=O)Cc1ccc(OCC(O)CNC(C)C)cc1 (centres unmarked) [Compound 13, n-Butyl 4-(2-hydroxy-3-isopropylamino)propoxyphenylacetate]
- Observed pseudo first order hydrolytic rate constant k [2]: 9.27 ± 0.07 × 10^-2 min^-1
- half-life [2]: 7.48 min
- control of heart rate 60 minutes after administration ([1]; FIG. 1): effectively control the heart rate
- resting heart rate prior to administration of isoproterenol [1]: 340±14 beat/minute
- mean change in blood pressure vs propranolol and compound 12-treated groups [4]: significantly lower (p<0.15)
- mean change in blood pressure at 10 minutes vs compound 12-treated group ([4]; 10 minutes after isoproterenol): different from the compound 12-treated group
- mean change in blood pressure at 10 minutes vs compound 18 group ([4]; 10 minutes after isoproterenol): significantly different from the group treated with compound 18
- mean change in blood pressure at 15 minutes vs compound 12, 18 and control vehicle ([4]; 15 minutes after isoproterenol): significantly different from groups pretreated with compound 12, 18 and the control vehicle
- half-life at 1000 µM ([3]; read-out: in vitro plasma half-life): ~1 min

Structure (SMILES): CC(C)NCC(O)COc1ccc(CC(=O)O)cc1 (centres unmarked) [drawing 10]
- activity as metabolite of metoprolol (β-adrenergic [6]): inactive metabolite

Structure (SMILES): CC(C)NCC(O)COc1ccc(CC(=O)O)cc1 (centres unmarked) [Compound 5, 4-(2-Hydroxy-3-isopropylamino)propoxyphenylacetic acid]
- activity of acid (β-adrenergic [7]): inactive
